Data as given in US8975259B2, “Compositions and methods for inhibiting G protein signaling” (University of Rochester, priority 2007, dated 2015).
Where two headings read alike, the source gives them in different places.

Assays:
Gβ1γ2 = Gβ1γ2 (UniProt P54311+P63212); test: Competition phage ELISA: inhibition of SIGK-phage binding to immobilized biotinylated Gβ1γ2; parameters: made in house; host or cells: Sf9 insect cells (baculovirus; co-expressed with BirA and (His)6-Gαi1, from which βγ was eluted); species or system rat
Method: Phage ELISA assays used to assess peptide binding to wild-type and mutant b-βγ were performed according to standard methods (Smrcka and Scott (2002) Methods Enzymol. 344:557-76). Briefly, 1 μg streptavidin was immobilized in the well of a […] overnight at 4° C. The wells were blocked with 100 μL of 2% bovine serum albumin (BSA) in Tris-buffered saline (TBS) for 1 hour at 4° C. followed by three washes of IX TBS/0.5% TWEEN®. […] The wells were washed, followed by the addition of IxIO^6 to IxIO^10 phage particles and incubated at 4° C. for 3 hours. The wells were then washed six times with TBS/0.5% TWEEN® followed by addition of 40 μL of 1:5000 dilution of anti-M13 antibody (Pharmacia, Uppsala, Sweden) and incubated at room temperature for 1 hour. The wells were washed, followed by the addition of 40 μL of (2,2′-Azino-bis (3-ethylbenzthiazoline)-6-sulfonic acid (ABTS) and the colorimetric reaction was monitored at 405 nm. Nonspecific binding was subtracted for each reading.
A phage ELISA assay was used to determine whether small molecules identified in the computational screen could interact with the Gβy protein interaction surface. […] The screen was based on a reduction in the optical density (OD) of wells containing Gβγ subunits and phage. […] Three background wells contained no βy subunits.
As disclosed herein, biotinylated Gβy subunits were immobilized on the surface of a 96-well plate coated with streptavidin, phage displaying Gβγ-binding peptides were subsequently added and binding in the presence and absence of test compounds detected with an anti-phage antibody.
The phage ELISA assay was used to rapidly screen the ability of compounds to bind to the protein interaction “hot spot” based on the method of Scott et. al (Scott et al., 2001). This assay is performed in the presence of detergent (0.5% Tween) to eliminate non-specific compound aggregation artifacts.
Compounds/DMSO and 0.1×10^10 phage were added simultaneously and subsequently incubated for 1 h at room temperature. Plates were then washed with 1× Tris-buffered saline/0.5% Tween 20 and incubated with anti-M13, HRP-conjugated antibody (Amersham, Chalfont St. Giles, Buckinghamshire, UK). Phage binding was determined by monitoring A405 upon addition of 2,2′-azino-bis(3-ethylbenzothiazoline-6-sulfonic acid) (Sigma Aldrich).

[1] = system: Rac1 activation in differentiated HL60 cells; test: fMLP-induced Rac1 activation in differentiated HL60 cells; assay type: cell-based, human; conditions: 10 μM compound, 1 μM fMLP; result in words
Method: Differentiated HL60 cells stably expressing GFP-PH-Akt were challenged with 250 nM fMLP in the presence and absence of 10 μM concentrations of the indicated compounds. Translocation of GFP-PH-Akt to the plasma membrane was evaluated by Western blot. Quantification shown below. ***, P<0.001 analysis of variance (ANOVA) is statistically different from control (PBS+vehicle). […] Differentiated HL60 cells were challenged with 1 μM fMLP in the presence and absence of 10 μM concentrations of the indicated compounds. Rac1 activation was assessed by Western blots of affinity-precipitated GTP-Rac1 from HL60 cell lysates. Western blot shown is representative of three independent experiments and quantitation contains data pooled from three independent experiments±S.E.M. *P<0.05 ANOVA is statistically different from control (DMSO only). n=3. […] Differentiated HL60 cells were challenged with 250 nM fMLP or 250 nM PMA in the presence and absence of 10 μM compounds or 100 nM Wortmannin (Wtmn). NADPH oxidase activity was determined after reaction with NBT by absorbance at 540 nm. Data shown is contains data pooled from three independent experiments (each in duplicate)±S.E.M. *, P<0.05 ANOVA is statistically different from control (DMSO only).
HL60 cells (differentiated for 4 days) were washed with and resuspended in NaCl buffer to a final concentration of 20×10^6 cells/ml. Cells (10×10^6/reaction) were pretreated with 10 μMGβγ inhibitor (in DMSO) for 10 min before challenge with 1 μM fMLP for 90 s in a 37° C. water bath and then immediately transferred to an ice-water bath. Cells were recovered by centrifugation at 500 g and washed two times with ice-cold Tris-buffered saline, pH 7.4. […] Chemiluminescence was analyzed using a charge-coupled device camera in a UVP Epi-Chem II Darkroom imaging system. Results were expressed as percent fMLP-stimulated GTP Rac1 normalized to total Rac1 with the background subtracted.

Row | IC50 (Gβ1γ2) [µM] | apparent affinity for Gβ1γ2 relative to M119 (Gβ1γ2) | SMILES | effect on fMLP-induced Rac1 activation [1] | IC50 (Gβ1γ2; ELISA, Table 19) [µM] | IC50 (Gβ1γ2; IC50 μM, Table 18, compounds identified in Elisa screen) [µM] | IC50 (Gβ1γ2; IC50, Table 8, last row) [µM] | IC50 (Gβ1γ2; IC50 in phage ELISA (SIGK competition)) [µM]
1 | 0.2 | – | O=C(O)c1ccccc1-c1c2ccc(=O)c(O)c-2oc2c(O)c(O)ccc12 (racemic) [Gallein] | inhibited | – | – | – | –
2 | – | – | O=C(O)C1CCCCC1c1c2ccc(=O)c(O)c-2oc2c(O)c(O)ccc12 (stereo not drawn) [Compound M119, cyclohexanecarboxylic acid, 2-(4,5,6-trihydroxy-3-oxo-3H-xanthen-9-yl)-(9cl)] | inhibited | 0.2 | 0.2 | 0.1 | 0.2
3 | – | 1/1000 | O=C(O)C1CCCCC1c1c2ccc(=O)cc-2oc2cc(O)ccc12 (stereo not drawn) [Compound M119B] | little effect | – | – | – | –
